# Where two headings read alike, the source gives them in different places.
# What was measured:
# [1] = molecular target: T1, ArnA_DH (Escherichia coli, UniProt P77398); settings: for Tm (melting temperature of ArnA_DH with ligand): no ligand Tm = 318.4 ± 0.03 K
# [2] = molecular target: T1, ArnA_DH; assay: biochemical
# [3] = molecular target: T2, ArnA_DH_N492A (Escherichia coli, UniProt P77398, N492A); assay: NADH binding; type: biochemical; settings: concentrations as high as 10 mM
# T2 sequence (P77398 314-660 N492A): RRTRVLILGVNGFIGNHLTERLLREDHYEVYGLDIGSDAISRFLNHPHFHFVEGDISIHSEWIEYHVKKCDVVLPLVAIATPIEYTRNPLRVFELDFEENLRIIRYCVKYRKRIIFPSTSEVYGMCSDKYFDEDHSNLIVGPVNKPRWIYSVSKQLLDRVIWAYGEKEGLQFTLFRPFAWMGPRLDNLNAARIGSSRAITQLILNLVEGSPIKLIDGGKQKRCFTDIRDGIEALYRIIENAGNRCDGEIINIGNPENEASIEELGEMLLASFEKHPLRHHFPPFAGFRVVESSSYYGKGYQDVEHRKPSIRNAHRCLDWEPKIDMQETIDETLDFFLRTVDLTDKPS
# [4] = molecular target: T2, ArnA_DH_N492A; assay: Thermal stability shift assay for ligand binding to N492A mutant
SMILES,ligand binding by thermal stability shift assay ([1]; 1 mM and 10 mM ligand),Tm (melting temperature of ArnA_DH with ligand) ([1]; 1 mM ligand),Tm (melting temperature of ArnA_DH with ligand) ([1]; 10 mM ligand),Kd [2],UDP-GlcA-induced conformational change of ArnA_DH_N492A (intrinsic NADH fluorescence) [3],Kd [4]
"O=C(O)[C@H]1O[C@H](OP(=O)(O)O)[C@H](O)[C@@H](O)[C@@H]1O [GlcA-1P, glucuronic acid-1-phosphate]",undetectable,318.9 ± 0.02 K,318.4 ± 0.03 K,,,
O=c1ccn([C@@H]2O[C@H](COP(=O)(O)OP(=O)(O)O[C@H]3OC[C@@H](O)[C@H](O)[C@H]3O)[C@@H](O)[C@H]2O)c(=O)[nH]1 [UDP-xylose],,320.0 ± 0.03 K,,633 ± 116 µM,,
"O=c1ccn([C@@H]2O[C@H](COP(=O)(O)O)[C@@H](O)[C@H]2O)c(=O)[nH]1 [UMP, uridine monophosphate]",,320.6 ± 0.02 K,,594 ± 135 µM,,
"O=C(O)[C@H]1O[C@H](OP(=O)(O)OP(=O)(O)OC[C@H]2O[C@@H](n3ccc(=O)[nH]c3=O)[C@H](O)[C@@H]2O)[C@H](O)[C@@H](O)[C@@H]1O [UDP-GlcA, UDP-glucuronic acid]",,,,22 ± 5 µM,little change in the intrinsic NADH fluorescence,36 ± 7 µM
